Test results published in PubChem BioAssay (NCI).
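Tested at 5 concentrations; 48 h exposure; 96-well plates; endpoints linearly interpolated, else capped at highest concentration. Here, GI50 denotes the concentration required for 50% inhibition of growth. TGI denotes the concentration required for complete inhibition of growth.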

Columns and labels:
Test in all cases: inhibition of tumour cell growth, NCI panel, 48 h
XF 498 CNS = system: XF 498 CNS
SNB-78 CNS = system: SNB-78 CNS
LXFL 529 NSCLC = system: LXFL 529 NSCLC
HS 578T breast = system: HS 578T breast
NCI/ADR-RES ovarian = system: NCI/ADR-RES ovarian
PC-3 prostate = system: PC-3 prostate
T-47D breast = system: T-47D breast
MCF7 breast = system: MCF7 breast
MDA-MB-435 = system: MDA-MB-435
KM20L2 colon = system: KM20L2 colon

N/N=C(\Cc1ccccc1)NN=C(N)N
TGI (XF 498 CNS): > 100 µM
TGI (SNB-78 CNS): > 100 µM
TGI (LXFL 529 NSCLC): > 100 µM

Oc1cc(Cl)ccc1Oc1ccc(Cl)cc1Cl
GI50 (HS 578T breast): 4.54 µM
TGI (HS 578T breast): 42.6 µM
GI50 (NCI/ADR-RES ovarian): 2.81 µM
TGI (NCI/ADR-RES ovarian): 7.93 µM
GI50 (PC-3 prostate): 2.78 µM
TGI (PC-3 prostate): 8.43 µM
GI50 (T-47D breast): 3.03 µM
TGI (T-47D breast): 9.94 µM
GI50 (MCF7 breast): 3.14 µM
TGI (MCF7 breast): 10.6 µM
GI50 (MDA-MB-435): 2.86 µM
TGI (MDA-MB-435): 9.24 µM

CC(=O)c1cccc(NCn2nnc3ccccc32)c1
TGI (XF 498 CNS): > 100 µM
TGI (KM20L2 colon): > 100 µM
TGI (LXFL 529 NSCLC): > 100 µM

C=C[C@]1(C)C=C2C(=O)[C@@]3(O)OC[C@@]4(CCCC(C)(C)C43O)C2(O)C(O)C1 (some centres not stated)
GI50 (HS 578T breast): 5.13 µM
TGI (HS 578T breast): 22.2 µM
GI50 (NCI/ADR-RES ovarian): 2.33 µM
TGI (NCI/ADR-RES ovarian): 6.62 µM
GI50 (PC-3 prostate): 14.9 µM
TGI (PC-3 prostate): 32.7 µM
GI50 (T-47D breast): 0.759 µM
TGI (T-47D breast): 2.43 µM
GI50 (MCF7 breast): 3.39 µM
TGI (MCF7 breast): 15.3 µM
GI50 (MDA-MB-435): 3.95 µM
TGI (MDA-MB-435): 14.9 µM

CCc1c2c(nc3cccc(N)c13)-c1cc3c(c(=O)n1C2)COC(=O)[C@]3(O)CC
TGI (HS 578T breast): > 100 µM
GI50 (NCI/ADR-RES ovarian): 0.0164 µM
TGI (NCI/ADR-RES ovarian): > 100 µM
GI50 (PC-3 prostate): 0.349 µM
TGI (PC-3 prostate): > 100 µM
TGI (T-47D breast): > 100 µM
GI50 (MCF7 breast): < 0.001 µM
TGI (MCF7 breast): 0.0101 µM
GI50 (MDA-MB-435): 0.0349 µM
TGI (MDA-MB-435): 1.54 µM

CS(=O)(=O)Nc1cc(-c2ccc3ncnc(Nc4ccc5c(cnn5Cc5ccc(F)cc5)c4)c3c2)cnc1Cl
GI50 (HS 578T breast): 0.246 µM
TGI (HS 578T breast): 2.04 µM
GI50 (NCI/ADR-RES ovarian): 17 µM
TGI (NCI/ADR-RES ovarian): > 100 µM
GI50 (PC-3 prostate): 1.8 µM
TGI (PC-3 prostate): 8.68 µM
GI50 (T-47D breast): 0.256 µM
TGI (T-47D breast): 2.23 µM
GI50 (MCF7 breast): 0.404 µM
TGI (MCF7 breast): 10.2 µM
GI50 (MDA-MB-435): 1.1 µM
TGI (MDA-MB-435): 3.67 µM

O=C(O)CCC1CCc2cccc3occ1c23 (configuration not stated)
TGI (KM20L2 colon): > 100 µM
TGI (SNB-78 CNS): > 100 µM
TGI (LXFL 529 NSCLC): > 100 µM

O=c1[nH]cnc2c(C3OC(CO)C(O)C3O)scc12 (configuration not stated)
GI50 (HS 578T breast): > 100 µM
TGI (HS 578T breast): > 100 µM
GI50 (NCI/ADR-RES ovarian): 44.5 µM
TGI (NCI/ADR-RES ovarian): > 100 µM
GI50 (PC-3 prostate): 37.9 µM
TGI (PC-3 prostate): > 100 µM
GI50 (T-47D breast): > 100 µM
TGI (T-47D breast): > 100 µM
GI50 (MCF7 breast): 50.1 µM
TGI (MCF7 breast): > 100 µM
GI50 (MDA-MB-435): > 100 µM
TGI (MDA-MB-435): > 100 µM

O=[N+]([O-])c1ccc(CS(=O)Cc2ccccc2)cc1 (configuration not stated)
TGI (HS 578T breast): > 100 µM
TGI (NCI/ADR-RES ovarian): > 100 µM
TGI (PC-3 prostate): > 100 µM
TGI (T-47D breast): > 100 µM
TGI (MCF7 breast): > 100 µM
TGI (MDA-MB-435): > 100 µM

Fc1ccc(Nc2nccc(-c3c(-c4ccc(C(F)(F)F)cc4)nn4ncccc34)n2)cc1F
GI50 (HS 578T breast): > 25 µM
TGI (HS 578T breast): > 25 µM
GI50 (NCI/ADR-RES ovarian): > 25 µM
TGI (NCI/ADR-RES ovarian): > 25 µM
GI50 (PC-3 prostate): > 25 µM
TGI (PC-3 prostate): > 25 µM
GI50 (T-47D breast): > 25 µM
TGI (T-47D breast): > 25 µM
GI50 (MCF7 breast): > 20.2 µM
TGI (MCF7 breast): > 25 µM
GI50 (MDA-MB-435): > 25 µM
TGI (MDA-MB-435): > 25 µM

CCCCC[C@H]1C/C=C2/C(=O)C(Cl)=C[C@@H]2C/C=C\CCCC(=O)O[C@@H](CCCCC)C/C=C2/C(=O)C(Cl)=C[C@@H]2C/C=C\CCCC(=O)O1
GI50 (HS 578T breast): 0.709 µM
TGI (HS 578T breast): 16.7 µM
GI50 (NCI/ADR-RES ovarian): 2.44 µM
TGI (NCI/ADR-RES ovarian): 9.46 µM
GI50 (PC-3 prostate): 0.368 µM
TGI (PC-3 prostate): 1.08 µM
GI50 (T-47D breast): 0.39 µM
TGI (T-47D breast): 1.18 µM
GI50 (MCF7 breast): 0.155 µM
TGI (MCF7 breast): 1.93 µM
GI50 (MDA-MB-435): 0.344 µM
TGI (MDA-MB-435): 0.793 µM

CC(C)(Br)C(=O)/C=C/c1ccccc1
TGI (HS 578T breast): > 60.3 µM
TGI (NCI/ADR-RES ovarian): > 75.5 µM
TGI (PC-3 prostate): 33.7 µM
TGI (T-47D breast): > 52 µM
TGI (MCF7 breast): 15.3 µM
TGI (MDA-MB-435): 22.2 µM

CCOC(=O)c1c(C)n(Cc2ccc(Cl)cc2Cl)c2c1cc1oc(=O)c(=O)n3c(Cc4ccccc4)nc2c13
GI50 (HS 578T breast): 1.21 µM
TGI (HS 578T breast): 3.12 µM
GI50 (NCI/ADR-RES ovarian): 5.46 µM
TGI (NCI/ADR-RES ovarian): 18.3 µM
GI50 (PC-3 prostate): 2.06 µM
TGI (PC-3 prostate): 5.01 µM
GI50 (T-47D breast): 4.9 µM
TGI (T-47D breast): 22.2 µM
GI50 (MCF7 breast): 2.52 µM
TGI (MCF7 breast): 8.07 µM
GI50 (MDA-MB-435): 4.55 µM
TGI (MDA-MB-435): 16.9 µM

CC(=O)C1=C([O-])C(C)OC1=O.CC(=O)C1=C([O-])C(C)OC1=O.[NH-]C1CCCC[C@H]1[NH-].[Pt+4] (configuration not stated)
GI50 (XF 498 CNS): 66.9 µM
TGI (XF 498 CNS): > 100 µM
GI50 (KM20L2 colon): 66.7 µM
TGI (KM20L2 colon): > 100 µM
GI50 (LXFL 529 NSCLC): 36.2 µM
TGI (LXFL 529 NSCLC): > 100 µM

Cc1ncc([N+](=O)[O-])n1CCNC(=O)CCCn1cnc([N+](=O)[O-])n1
TGI (HS 578T breast): > 100 µM
TGI (NCI/ADR-RES ovarian): > 100 µM
TGI (PC-3 prostate): > 100 µM
TGI (T-47D breast): > 100 µM
TGI (MCF7 breast): > 100 µM
TGI (MDA-MB-435): > 100 µM

CC(=O)OC1C2(CC3N4C(=O)C5(CO)SSC4(CC31O)C(=O)N5C)OC(C)C(C)(C)C2=O (configuration not stated)
GI50 (HS 578T breast): 0.0449 µM
TGI (HS 578T breast): 0.213 µM
GI50 (NCI/ADR-RES ovarian): < 0.042 µM
TGI (NCI/ADR-RES ovarian): 0.879 µM
GI50 (PC-3 prostate): 0.148 µM
TGI (PC-3 prostate): 0.588 µM
GI50 (T-47D breast): < 0.01 µM
TGI (T-47D breast): 0.0782 µM
GI50 (MCF7 breast): < 0.0139 µM
TGI (MCF7 breast): 0.403 µM
GI50 (MDA-MB-435): 1.94 µM
TGI (MDA-MB-435): 3.75 µM

O=c1oc2ccc(Cl)cc2c(=O)n1-c1ccc(I)cc1F
GI50 (HS 578T breast): 0.161 µM
TGI (HS 578T breast): 1.11 µM
GI50 (NCI/ADR-RES ovarian): 0.3 µM
TGI (NCI/ADR-RES ovarian): 2.87 µM
GI50 (PC-3 prostate): 0.924 µM
TGI (PC-3 prostate): 6.92 µM
GI50 (T-47D breast): 0.152 µM
TGI (T-47D breast): 1.11 µM
GI50 (MCF7 breast): 0.258 µM
TGI (MCF7 breast): > 23.9 µM
GI50 (MDA-MB-435): 0.271 µM
TGI (MDA-MB-435): 3.86 µM

COc1cc2cc(Oc3ccc(NC(=O)c4ccc(Cl)c(C(F)(F)F)c4)cc3)c(C)nc2cc1OC
GI50 (HS 578T breast): 16.6 µM
TGI (HS 578T breast): 64 µM
GI50 (NCI/ADR-RES ovarian): 4.21 µM
TGI (NCI/ADR-RES ovarian): > 100 µM
GI50 (PC-3 prostate): 4.3 µM
TGI (PC-3 prostate): > 100 µM
GI50 (T-47D breast): 5.69 µM
TGI (T-47D breast): 99.6 µM
GI50 (MCF7 breast): 8.95 µM
TGI (MCF7 breast): > 100 µM
GI50 (MDA-MB-435): 14.7 µM
TGI (MDA-MB-435): > 100 µM

CC1=CC(=O)C(C(C)=Nc2ccccc2Cl)C(=O)O1 (configuration not stated)
GI50 (HS 578T breast): > 100 µM
TGI (HS 578T breast): > 100 µM
GI50 (NCI/ADR-RES ovarian): > 100 µM
TGI (NCI/ADR-RES ovarian): > 100 µM
GI50 (PC-3 prostate): > 100 µM
TGI (PC-3 prostate): > 100 µM
GI50 (T-47D breast): > 100 µM
TGI (T-47D breast): > 100 µM
GI50 (MCF7 breast): > 100 µM
TGI (MCF7 breast): > 100 µM
GI50 (MDA-MB-435): > 100 µM
TGI (MDA-MB-435): > 100 µM

Nc1nc(Nc2cccc(F)c2)nc2ccccc12
GI50 (HS 578T breast): 20 µM
TGI (HS 578T breast): 58 µM
GI50 (NCI/ADR-RES ovarian): 26.7 µM
TGI (NCI/ADR-RES ovarian): 94.3 µM
GI50 (PC-3 prostate): 31 µM
TGI (PC-3 prostate): > 100 µM
GI50 (T-47D breast): 15.6 µM
TGI (T-47D breast): 63 µM
GI50 (MCF7 breast): 15.6 µM
TGI (MCF7 breast): > 100 µM
GI50 (MDA-MB-435): 16.8 µM
TGI (MDA-MB-435): 36.6 µM
